In BindingDB's records for doi:10.7270/Q2TX3CTT (Broad Institute, 2010) one finds EC50 data, which are given here for 61 compounds.

Where a name gives a salt, the structure may show the parent alone.

For orientation: EC50 means the concentration needed to bring the measured effect to its halfway point. Low values mean an effect from little substance, high ones a need for much substance.

In the assay the target is Glycogen synthase kinase-3 beta (Homo sapiens, UniProt P49841). Briefly: concentration-response blocking of human GSK3B – biochemical, luminescence, cell-free homogeneous, retest, dose response (AID 434954).
Chain of Glycogen synthase kinase-3 beta (P49841 whole entry): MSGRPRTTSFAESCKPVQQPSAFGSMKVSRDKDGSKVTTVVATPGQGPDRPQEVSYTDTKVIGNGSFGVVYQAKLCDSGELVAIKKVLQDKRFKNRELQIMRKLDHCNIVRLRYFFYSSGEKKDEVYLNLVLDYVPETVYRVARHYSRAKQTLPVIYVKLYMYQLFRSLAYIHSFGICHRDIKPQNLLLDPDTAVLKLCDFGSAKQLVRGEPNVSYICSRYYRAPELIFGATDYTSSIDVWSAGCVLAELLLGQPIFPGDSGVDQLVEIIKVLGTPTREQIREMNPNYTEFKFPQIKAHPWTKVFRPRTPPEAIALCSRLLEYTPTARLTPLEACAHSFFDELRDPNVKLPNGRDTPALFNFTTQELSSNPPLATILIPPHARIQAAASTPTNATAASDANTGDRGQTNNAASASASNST
`CCOC(=O)c1sc(NC(=O)CSc2nnc(C(C)C)n2C)nc1C` [2-[2-(5-Isopropyl-4-methyl-4H-[1,2,4]triazol-3-ylsulfanyl)-acetylamino]-4-methyl-thiazole-5-carboxylic acid ethyl ester] gave an EC50 of 26 µM. In the case of `Nc1nonc1-n1nnc(C(=O)NN=Cc2ccccc2O)c1CN1CCCC1` [1-(4-amino-1,2,5-oxadiazol-3-yl)-N'-[(E)-(6-oxo-1-cyclohexa-2,4-dienylidene)methyl]-5-(1-pyrrolidinylmethyl)-4-triazolecarbohydrazide] it was 24.6 µM. As for `COc1cccc2cc(C(=O)OCc3ccccc3)c(=O)oc12` [(phenylmethyl) 8-methoxy-2-oxidanylidene-chromene-3-carboxylate], the figure is > 300 µM; as for `COc1ccccc1N1CCN(C(=O)Cn2nnc(-c3ccncc3)n2)CC1` [SMR000003468], > 300 µM.

With `Cc1ccc(S(=O)(=O)N2CN(Cc3ccco3)c3nc4ccccc4nc32)cc1` [SMR000145587], the EC50 is > 300 µM. With `Cc1c(Cl)cccc1NC(=S)N(C)CCC#N` [3-(3-chloro-2-methylphenyl)-1-(2-cyanoethyl)-1-methylthiourea], the EC50 is > 300 µM.

Regarding `Nc1nc(NCCOCCO)nc(NC2CCCCC2)c1[N+](=O)[O-]` [SMR000540405], the EC50 was found to be 3.01 µM. For the compound `COc1cccc(C(=O)Nc2nc(C)cs2)c1`, the EC50 is > 300 µM.

`CC(=O)c1ccc(NC(=O)CN2C(=O)CCC2=O)cc1` [N-(4-acetylphenyl)-2-(2,5-dioxo-1-pyrrolidinyl)acetamide]: the EC50 is > 300 µM. As for `Cc1ccc2c(c1)COc1c3ccc(C(=O)O)cc3nn1-2`, the figure is 8.69 µM; as for `COc1ccc(Nc2nc3ccc(OC)cc3s2)cc1` [MLS000684722], > 300 µM.

For `Cc1cc(Cl)nc(Cl)c1C(=O)N1CCOCC1` [SMR000307050], the EC50 is > 300 µM. As for `COc1cc([CH+][N-]NC(=O)c2ccncc2)ccc1Oc1ccc([N+](=O)[O-])cn1` [N-[[3-methoxy-4-[(5-nitro-2-pyridinyl)oxy]phenyl]methylideneamino]-4-pyridinecarboxamide], the figure is > 300 µM; as for `CCCn1nc(NC(=O)c2cccs2)c2cc3cccc(C)c3nc21`, > 300 µM; as for `COc1cc2c(cc1O)C[C@H]1NCCc3cc4c(c-2c31)OCO4` [SMR000156298], 16.3 µM. In the case of `COc1ccc(C=C2SC(NCc3ccccc3)=NC2=O)cc1` [(5Z)-5-[(4-methoxyphenyl)methylidene]-2-[(phenylmethyl)amino]-1,3-thiazol-4-one] it was 7.01 µM; in that of `CCN1CCN(CCNC(=O)c2ccc3c(c2)NC(=O)/C(=C\c2ccc(OC)c(OC)c2)S3)CC1` [(2E)-2-[(3,4-dimethoxyphenyl)methylidene]-N-[2-(4-ethylpiperazin-1-yl)ethyl]-3-oxidanylidene-4H-1,4-benzothiazine-6-carboxamide], 16.3 µM. As to `Nc1nc(S)c2ncn(C3OC(CO)C(O)C3O)c2n1` (stereo unspecified) [2-azanyl-9-[5-(hydroxymethyl)-3,4-bis(oxidanyl)oxolan-2-yl]-3H-purine-6-thione], the EC50 was > 300 µM. The compound `NC(=O)c1c(NC(=O)CCCn2cnc([N+](=O)[O-])n2)sc2c1CCCC2` [2-{[4-(3-nitro-1H-1,2,4-triazol-1-yl)butanoyl]amino}-4,5,6,7-tetrahydro-1-benzothiophene-3-carboxamide] had an EC50 of 105 µM.

For the compound `COc1ccc(-c2nn(CCC#N)cc2CN=O)cc1OC` [3-[3-(3,4-dimethoxyphenyl)-4-(hydroxyiminomethyl)pyrazol-1-yl]propanenitrile], the EC50 is > 300 µM.

Consider `CC1(C)CC(=O)C(C2(O)C(=O)Nc3ccccc32)CO1` (stereo unspecified) [MLS000689086], for which the EC50 was > 300 µM. With `CCC(=NNC(=O)CSCc1ccccc1Cl)c1ccc2c(c1)OCCO2`, the EC50 is > 300 µM. With `COc1ccc(C(C)N2CC34C=CC(O3)C(C(=O)O)C4C2=O)cc1` (stereo unspecified) [3-[1-(4-Methoxy-phenyl)-ethyl]-4-oxo-10-oxa-3-aza-tricyclo[5.2.1.0*1,5*]dec-8-ene-6-carboxylic acid], the EC50 is > 300 µM.

`CSc1nc(N)c2c3c(sc2n1)CN(C)CC3` [7-methyl-2-methylsulfanyl-6,8-dihydro-5H-pyrido[4,5]thieno[1,2-c]pyrimidin-4-amine] registered an EC50 of 73.2 µM. Take `Cc1ccc(C=NNC(=O)c2cncc(Br)c2)o1` [SMR000226283]: the EC50 is > 300 µM. Compound `NNc1ncnc2c1cnn2-c1ccccc1` [(1-phenylpyrazolo[3,4-d]pyrimidin-4-yl)diazane] showed an EC50 of 12.8 µM. As to `O=C1Nc2cc(C(=O)NCCN3CCCCCC3)ccc2S/C1=C\c1ccccc1` [SMR000635247], the EC50 was > 300 µM. For `Nc1ccc(C(=O)Nc2ccccc2C(=O)O)cc1`, the EC50 was > 300 µM. As for `O=C(COc1cccc2cccnc12)NN=Cc1ccc(O)cc1` [N'-[(4-oxo-1-cyclohexa-2,5-dienylidene)methyl]-2-(8-quinolinyloxy)acetohydrazide], the figure is 9.3 µM; as for `CCc1ccc(C2CC(c3ccc(C)cc3)Nc3nc(N)nn32)cc1` (stereo unspecified), > 300 µM. Consider `Cc1ccc(C(=O)COC(=O)c2ccc(O)cc2)cc1`, for which the EC50 was > 300 µM. In the case of `Cc1ccc(Nc2nc(NCCCN3CCOCC3)nc(N)c2[N+](=O)[O-])cc1C` [SMR000219808] it was > 300 µM; in that of `CCOC(=O)c1nnn(-c2nonc2N)c1-c1ccc(OCC)cc1` [1-(4-amino-1,2,5-oxadiazol-3-yl)-5-(4-ethoxyphenyl)-4-triazolecarboxylic acid ethyl ester], 20 µM; in that of `CC1CCCCN1c1cc(C#N)c(C#N)cc1[N+](=O)[O-]` (stereo unspecified) [4-(2-methyl-1-piperidinyl)-5-nitrophthalonitrile], > 300 µM. For the compound `O=NCc1cn(-c2ccccc2)nc1-c1ccc2c(c1)OCCO2` [N-[[3-(2,3-dihydro-1,4-benzodioxin-6-yl)-1-phenylpyrazol-4-yl]methylidene]hydroxylamine], the EC50 amounted to 58.7 µM. This counts as double-digit micromolar. Regarding `CCC(=O)Nc1ccc(Nc2nc(C)c([N+](=O)[O-])c(Nc3ccc(NC(=O)CC)cc3)n2)cc1` [N,N'-[(6-methyl-5-nitro-2,4-pyrimidinediyl)bis(imino-4,1-phenylene)]dipropanamide], the EC50 is > 300 µM. In the case of `N#CC(C#N)c1nc2ccccc2nc1-[n+]1cccc([N-]C(=O)c2ccccc2)c1` it was > 300 µM; in that of `CCC1(CC)NC(=O)N(CC(=O)OCC(=O)Nc2sccc2C#N)C1=O` [[2-[(3-cyanothiophen-2-yl)amino]-2-oxoethyl] 2-(4,4-diethyl-2,5-dioxoimidazolidin-1-yl)acetate], > 300 µM; in that of `COc1ccc(-c2nn(-c3ccccc3)cc2/C=C/C(=O)N2CCOCC2)cc1OC` [MLS001017845], > 300 µM. In the case of `Cc1ccc(S(=O)(=O)N(C)CC(=O)N2CCCc3ccccc32)cc1` [SMR000076264], the EC50 is > 300 µM. On to `CCOC(=O)c1ccc(NC(=O)CN(C)S(=O)(=O)c2ccc(Br)s2)cc1` [ethyl 4-[2-[(5-bromanylthiophen-2-yl)sulfonyl-methyl-amino]ethanoylamino]benzoate], for which the EC50 was > 300 µM.

Compound `CN(Cc1nc2c(s1)CCCC2)C(=O)CCc1nnc(-c2ccc3c(c2)OCO3)o1` [SMR000318717] returned a half-maximal effective concentration (EC50) of 50 µM. As for `CCOC(=O)C1C(C)=Nc2ncnn2C1c1cccs1` (stereo unspecified), the figure is 57.9 µM. As for `CCOc1cc(C(=O)OCC(=O)Nc2ccc(Cl)cn2)ccc1OCC(=O)N1CCOCC1` [MLS000334350], the figure is 61.8 µM. In the case of `N#Cc1ccc(CSc2nnc(-c3ccncc3)o2)cc1` [MLS000687325] it was 15.1 µM.

On to `CCOC(=O)CC(=O)CSc1ccc2nnc(-c3ccccc3)n2n1` [ethyl 3-oxo-4-[(3-phenyl[1,2,4]triazolo[4,3-b]pyridazin-6-yl)thio]butanoate], for which the EC50 is > 300 µM. As for `O=C(O)c1ccc(N=NCc2ccc(-c3cccc(Cl)c3)o2)cc1` [SMR000415894], the figure is > 300 µM.

On to `O=C(Nc1ccccc1Cl)N1CCSc2ccccc21` [N-(2-chlorophenyl)-2,3-dihydro-4H-1,4-benzothiazine-4-carboxamide], for which the EC50 was > 300 µM. In the case of `CN1CCc2c(sc3c2c(=O)n(-c2cccc(Cl)c2)c2nncn32)C1` [MLS000084041] it was > 300 µM. As for `O=C(Oc1ccc(Cl)cc1)N1CCCCC1` [(4-chlorophenyl) piperidine-1-carboxylate], the figure is > 300 µM; as for `O=C(CSc1nnc(CNC(=O)c2cccc(C(F)(F)F)c2)o1)NC1CCCCC1`, > 300 µM. Take `COc1cccc(C(CC(=O)NCc2ccco2)NS(=O)(=O)c2ccc(C)cc2)c1OC` (stereo unspecified) [3-(2,3-dimethoxyphenyl)-N-(2-furylmethyl)-3-{[(4-methylphenyl)sulfonyl]amino}propanamide]: the EC50 is > 300 µM. As for `COC1=CC(=O)CC(C)C12Oc1cc(OC)cc(OC)c1C2=O` (stereo unspecified) [3',4,6-trimethoxy-5'-methyl-spiro[1-benzofuran-2,4'-cyclohex-2-ene]-1',3-dione], the figure is > 300 µM; as for `Cc1nc(NCCCn2ccnc2)c2ccccc2n1` [N-(3-imidazol-1-ylpropyl)-2-methyl-quinazolin-4-amine;hydrochloride], > 300 µM; as for `COc1ccc(CNCC2COc3ccccc3O2)cc1` (stereo unspecified) [SMR000588087], > 300 µM. As for `COc1ccc(C(=O)c2coc3ccc(O)c(CN4CCOCC4)c23)cc1` [MLS000115876], the figure is > 300 µM. As for `COc1ccc(Oc2c(C)oc3c(CN(C)C)c(O)ccc3c2=O)cc1`, the figure is > 300 µM; as for `O=C(CN(Cc1cccs1)C(=O)CCC(=O)Nc1ccccn1)NCc1ccccc1` [N'-[2-oxo-2-[(phenylmethyl)amino]ethyl]-N-(2-pyridinyl)-N'-(thiophen-2-ylmethyl)butanediamide], > 300 µM; as for `Cc1csc2c(=O)n(CCO)c(=O)[nH]c12` [MLS000861875], > 300 µM.

`CC(=O)Nc1c(-c2ccccc2)nc2ccc(Cl)cn12` [MLS001077169]: the EC50 is > 300 µM. In the case of `N#Cc1ccccc1CSc1nnc(-c2ccncc2)o1` [2-[(5-pyridin-4-yl-1,3,4-oxadiazol-2-yl)sulfanylmethyl]benzenecarbonitrile] it was 20.7 µM.
